Results: article PMC3481598, “Hierarchical virtual screening for the discovery of new molecular scaffolds in antibacterial hit identification” (Journal of the Royal Society Interface, 2012)
Read-outs that look alike come from different tables or passages of the source.

Experiments:
[1] = molecular target: T1, type II dehydroquinase from Streptomyces coelicolor (Streptomyces coelicolor, UniProt P15474); settings: cited from earlier work
H. pylori DHQase = molecular target: H. pylori DHQase; set-up: method as in PMID 16480265; settings: HTS hit; read-out: Ki against H. pylori DHQase; cited from earlier work
[2] = molecular target: T2, type II dehydroquinase from Mycobacterium tuberculosis (Mycobacterium tuberculosis, UniProt P9WPX7); settings: search template RP4, known optimized inhibitor; reference not given, probably ref 33; read-out: Ki (Mtb; μM); cited from earlier work
[3] = molecular target: T1, type II dehydroquinase from Streptomyces coelicolor; assay: S. coelicolor DHQase enzyme inhibition in vitro; format: biochemical
Excerpt: (§1) The next step was to purchase the compounds highlighted by these protocols to test them in vitro against M. tuberculosis DHQase and S. coelicolor DHQase. With the modest budget assigned to this proof of concept (£5000), we could purchase 148 compounds (full details on this process can be found in electronic supplementary material, Materials and methods). Tables 1 and 2 show the performance of each virtual screening protocol against each target (all IC50 measurements are included in the electronic supplementary material). […]. […].
(§2) In order to assess the overall hit rate and potency of these inhibitors, we calculated their inhibition constant (Ki) as explained in electronic supplementary material, Materials and methods (see table 3 for a summary). This is necessary to have a more accurate comparison with hit rates in the literature and with the potency of previously known inhibitors. […]. a total of 40 inhibitors) being noticeably higher than that for M. tuberculosis DHQase (23.6%; 35 inhibitors). […]. This difference might be due to the fact that our protocols are primarily exploiting crystal structures for S. coelicolor DHQase. […].

[4] = molecular target: T2, type II dehydroquinase from Mycobacterium tuberculosis; assay: M. tuberculosis DHQase enzyme inhibition in vitro; format: biochemical; settings: Ki calculated from measured IC50, read-out: Ki (Mtb; μM)
Excerpt: as §1, §2

T2 sequence (P9WPX7 whole entry): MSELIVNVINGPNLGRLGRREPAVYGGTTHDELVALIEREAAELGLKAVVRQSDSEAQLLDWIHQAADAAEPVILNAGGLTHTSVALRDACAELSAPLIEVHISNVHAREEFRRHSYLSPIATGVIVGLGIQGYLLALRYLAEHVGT
T1 sequence (P15474 whole entry): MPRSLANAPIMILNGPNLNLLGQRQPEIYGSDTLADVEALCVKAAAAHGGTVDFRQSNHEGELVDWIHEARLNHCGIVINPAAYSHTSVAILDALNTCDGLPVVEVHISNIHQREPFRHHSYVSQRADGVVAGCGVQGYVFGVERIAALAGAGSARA

SMILES	Ki [3] [µM]	Ki [4] [µM]	further results
O=C(O)[C@]1(O)C[C@H](CCCOc2ccccc2)[C@@H](O)[C@H](O)C1 [CA2]			Ki ([1]; read-out: measured Ki (2BT4 ligand)): 33 µM
O=c1c2ccccc2oc2ccc(S(=O)(=O)N=c3[nH]nn[nH]3)cc12 [GAJ]			Ki (H. pylori DHQase): 20 µM
O=C(O)[C@]1(O)C=C(c2cccc(Sc3ccccc3)c2)[C@@H](O)[C@H](O)C1 [RP4]			Ki ([1]; read-out: Ki (Sc; μM), search template RP4, known optimized inhibitor): 0.07 µM; Ki [2]: 0.38 µM
O=C(O)[C@H](Cc1ccccc1)N1C(=O)/C(=C/c2cccc3ccccc23)SC1=S [ZINC00978022]	4		
CC(C)N(C(=O)COC(=O)c1ccc(N)c([N+](=O)[O-])c1)C(C)C [ZINC05657290]	201	192	
CCOC(=O)C1=C(CSc2nc3ccccc3[nH]2)NC(=O)N[C@H]1C [ZINC06024496]	174	159	
CC[C@H](C)NC(=O)c1ccccc1NC(=O)Cc1ccccc1 [ZINC10025084]	148	167	
CC[C@H](C)NC(=O)c1ccccc1NC(=O)Cc1c(F)cccc1Cl [ZINC15608616]	149	150	
COc1ccc(CC(=O)Nc2cc(C(F)(F)F)ccc2N(C)C)cc1F [ZINC18086350]		166	inhibition at 224 µM ([3]; read-out: inhibition of S. coelicolor DHQase): 45%
O=C(Cn1nc2ccccn2c1=O)N(Cc1cccs1)Cc1cccs1 [ZINC24469052]	21		
